The values below come from patent US8609661B2, “Pyrimido-pyrrolo-quinoxalinedione inhibitors of cystic fibrosis transmembrane conductance regulator protein and uses therefor” (The Regents of the University of California, priority 2009, dated 2013).

pIC50: −log10 of the molar value. Where two headings read alike, the source gives them in different places.

What is called pIC50 is the IC50 on a negative log10 scale, so that one unit is a factor of ten.

The target in this assay is T1, human wildtype CFTR (Homo sapiens, UniProt P13569).
T1 construct: expressed in transfected cells; host or cells: Fischer rat thyroid (FRT) cells
T1 sequence (P13569 whole entry): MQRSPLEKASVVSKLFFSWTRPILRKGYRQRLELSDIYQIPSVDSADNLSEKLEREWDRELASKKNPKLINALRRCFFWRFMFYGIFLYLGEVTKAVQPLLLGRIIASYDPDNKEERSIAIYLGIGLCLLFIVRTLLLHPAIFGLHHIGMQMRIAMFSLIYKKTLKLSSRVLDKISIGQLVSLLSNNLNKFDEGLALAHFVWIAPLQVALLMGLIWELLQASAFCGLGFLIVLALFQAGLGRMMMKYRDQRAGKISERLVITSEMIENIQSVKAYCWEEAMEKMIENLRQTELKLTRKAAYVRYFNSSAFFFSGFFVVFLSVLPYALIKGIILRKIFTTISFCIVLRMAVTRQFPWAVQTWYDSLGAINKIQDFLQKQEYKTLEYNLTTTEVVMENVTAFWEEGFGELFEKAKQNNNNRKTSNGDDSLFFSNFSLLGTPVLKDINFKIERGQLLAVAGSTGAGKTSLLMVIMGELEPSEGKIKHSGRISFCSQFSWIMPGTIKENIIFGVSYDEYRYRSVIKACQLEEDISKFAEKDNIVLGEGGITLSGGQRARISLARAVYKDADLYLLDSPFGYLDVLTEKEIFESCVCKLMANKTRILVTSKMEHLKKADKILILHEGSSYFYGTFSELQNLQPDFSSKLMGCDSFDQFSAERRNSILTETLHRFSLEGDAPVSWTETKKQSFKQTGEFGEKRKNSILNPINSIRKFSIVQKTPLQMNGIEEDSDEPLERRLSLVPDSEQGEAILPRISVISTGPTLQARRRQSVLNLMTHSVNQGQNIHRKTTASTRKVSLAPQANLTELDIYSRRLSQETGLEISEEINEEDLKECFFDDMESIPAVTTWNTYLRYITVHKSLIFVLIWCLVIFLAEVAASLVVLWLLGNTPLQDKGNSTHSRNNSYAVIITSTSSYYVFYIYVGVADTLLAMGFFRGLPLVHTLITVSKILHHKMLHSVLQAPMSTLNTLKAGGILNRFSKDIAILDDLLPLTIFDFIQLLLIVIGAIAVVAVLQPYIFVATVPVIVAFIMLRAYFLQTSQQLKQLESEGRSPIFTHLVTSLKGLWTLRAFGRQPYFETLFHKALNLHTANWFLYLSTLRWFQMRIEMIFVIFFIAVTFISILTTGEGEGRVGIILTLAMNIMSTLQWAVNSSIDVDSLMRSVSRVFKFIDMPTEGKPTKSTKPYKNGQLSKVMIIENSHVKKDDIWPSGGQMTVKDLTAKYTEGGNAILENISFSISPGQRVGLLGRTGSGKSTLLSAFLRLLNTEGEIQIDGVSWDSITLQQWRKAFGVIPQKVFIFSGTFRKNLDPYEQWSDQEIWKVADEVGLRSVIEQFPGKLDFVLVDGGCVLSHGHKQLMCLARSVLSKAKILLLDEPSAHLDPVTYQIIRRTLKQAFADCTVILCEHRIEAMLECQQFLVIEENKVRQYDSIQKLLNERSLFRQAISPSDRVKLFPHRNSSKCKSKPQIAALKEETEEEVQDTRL
Nature of the assay: Fluorescence platereader assay of CFTR-mediated iodide influx (YFP quenching) in FRT cells. Particulars: for inhibition at 5 µM / inhibition at 25 µM: FRT; for pIC50: apparent IC50 from concentration-inhibition data, fluorescence platereader assay. It is filed as cell-based. How it is done: A. Cell lines and compounds—Fischer rat thyroid (FRT) cells co-expressing human wildtype CFTR and the halide indicator YFP-H148Q/1152L were generated as described (see, e.g., Ma et al., J. Clin. Invest. 110:1651-1658 (2002)). Cells were plated in 96-well black-walled microplates (Corning Costar) at a density of 20,000 cells per well in Coon's modified F12 medium supplemented with 5% fetal calf serum, 2 mM L-glutamine, 100 U/mL penicillin, and 100 μg/ml streptomycin. Assays were performed at 48 h after plating the cells when the cells were just confluent. For some experiments, measurements were made using T84 human intestinal epithelial cells and for other experiments, measurements were obtained using primary cultures of human bronchial epithelial cells, which were obtained and grown essentially as previously described (see, e.g., 3 and 27).
B. Compound Screening—Assays were performed using an automated screening platform (Beckman) equipped with FLUOStar fluorescence platereaders (BMG Lab Technologies, Offenburg, Germany) as described (see Ma et al., supra). Each well of a 96-well plate containing FRT cells was washed 3 times in PBS (300 μL/wash), leaving 50 μL PBS. […] After 15 min, 96-well plates were transferred to a plate reader for fluorescence assay. Each well was assayed individually for CFTR-mediated iodide influx by recording fluorescence continuously (200 ms per point) for 2 s (baseline) and then for 10 s after rapid addition of 160 μL of isosmolar PBS in which 137 mM chloride was replaced by iodide. The initial rate of iodide influx was computed from fluorescence data by non-linear regression.
Collections of synthetic and natural compounds were screened according to the screening procedures described in Example 2. A cell-based fluorescence assay was used in which CFTR inhibitors were identified by reduced iodide influx in FRT cells co-expressing human CFTR and a YFP halide sensor. CFTR was maximally activated by a mixture of agonists having different activating mechanisms. Inhibition of iodide influx was observed as reduced YFP fluorescence quenching in response to rapid iodide addition to each well of 96-well plates. […]

The mark [1] stands for this setting: Table 2, screening, 5 μM, read-out: % Inhibition at 5 μM.
Setting [2] is: Table 2, screening, 25 μM, read-out: % Inhibition at 25 μM.
[3] abbreviates: read-out: % inhibition at 25/5 μM (5 μM value), Table 1, 5 μM compound.
[4] abbreviates: read-out: % inhibition at 25/5 μM (25 μM value), Table 1, 25 μM compound.

For the molecule `COc1cc(C2Nc3ccccc3-n3c(-c4cccc(C)c4)c4c(=O)n(C)c(=O)n(C)c4c32)ccc1O` (centres unmarked) [PPQ-241, 7,9-Dimethyl-11-(3-methylphenyl)-6-(3-methoxy-4-hydroxyphenyl)-5,6-dihydro-pyrimido[4′,5′-3,4]pyrrolo[1,2-a]quinoxaline-8,10-(7H,9H)-dione], the inhibition at 5 µM under setting [1] is 16%. The inhibition at 25 µM under setting [2] is 74%.

On to `Cn1c(=O)c2c(-c3ccccc3F)n3c(c2n(C)c1=O)C(c1cccc(F)c1)Nc1ccccc1-3` (centres unmarked) [PPQ-230, 7,9-Dimethyl-11-(2-fluorophenyl)-6-(3-fluorophenyl)-5,6-dihydro-pyrimido[4′,5′-3,4]pyrrolo[1,2-a]quinoxaline-8,10-(7H,9H)-dione], for which the inhibition at 5 µM under setting [1] was 51%. Besides, the inhibition at 25 µM under setting [2] turned out to be 87%.

In the case of `COc1cccc(C2Nc3ccccc3-n3c(-c4ccccc4F)c4c(=O)n(C)c(=O)n(C)c4c32)c1` (centres unmarked) [PPQ-211, 7,9-Dimethyl-11-(2-fluorophenyl)-6-(3-methoxyphenyl)-5,6-dihydro-pyrimido[4′,5′-3,4]pyrrolo[1,2-a]quinoxaline-8,10-(7H,9H)-dione], the negative-log IC50 (pIC50) is 5.70. Moreover, the inhibition at 5 µM under setting [3] worked out at 62%. For the same molecule, the inhibition at 5 µM under setting [1] was 62%. Under setting [2], the inhibition at 25 µM is more than 95%.

Regarding `Cc1ccccc1C1Nc2ccccc2-n2c(-c3ccccc3)c3c(=O)n(C)c(=O)n(C)c3c21` (centres unmarked), the inhibition at 5 µM under setting [1] turned out to be 13%. In addition, the inhibition at 25 µM under setting [2] was 41%.

For the molecule `Cn1c(=O)c2c(-c3ccccc3F)n3c(c2n(C)c1=O)C(c1cccc(Cl)c1)Nc1ccccc1-3` (centres unmarked) [PPQ-214, 7,9-Dimethyl-11-(2-fluorophenyl)-6-(3-chlorophenyl)-5,6-dihydro-pyrimido[4′,5′-3,4]pyrrolo[1,2-a]quinoxaline-8,10-(7H,9H)-dione], the pIC50 is 5.60. Also, the inhibition at 5 µM under setting [3] worked out at 70%. Also, the inhibition at 5 µM under setting [1] was 70%. The inhibition at 25 µM under setting [2] is more than 95%.

As to `Cn1c(=O)c2c(-c3ccccc3)n3c(c2n(C)c1=O)C(c1ccc(F)cc1)Nc1ccccc1-3` (centres unmarked) [PPQ-249, 7,9-Dimethyl-11-phenyl-6-(4-fluorophenyl)-5,6-dihydro-pyrimido[4′,5′-3,4]pyrrolo[1,2-a]quinoxaline-8,10-(7H,9H)-dione], under setting [1], the inhibition at 5 µM came to 21%. In addition, the inhibition at 25 µM under setting [2] amounted to 64%.

For the molecule `COc1ccc(-c2c3c(=O)n(C)c(=O)n(C)c3c3n2-c2ccccc2NC3c2cccc(F)c2)cc1` (centres unmarked), the inhibition at 5 µM under setting [1] was less than 10%. Further, the inhibition at 25 µM under setting [2] was 37%.

As to `Cc1ccccc1-c1c2c(=O)n(C)c(=O)n(C)c2c2n1-c1ccccc1NC2c1cccs1` (centres unmarked) [PPQ-117, 7,9-Dimethyl-11-(2-methylphenyl)-6-(thienyl-2-yl)-5,6-dihydro-pyrimido[4′,5′-3,4]pyrrolo[1,2-a]quinoxaline-8,10-(7H,9H)-dione], the inhibition at 5 µM under setting [1] amounted to 19%. For the same molecule, the inhibition at 25 µM under setting [2] amounted to 67%.

`Cc1cccc(-c2c3c(=O)n(C)c(=O)n(C)c3c3n2-c2ccccc2NC3c2ccc(F)cc2)c1` (centres unmarked) [PPQ-238, 7,9-Dimethyl-11-(3-methylphenyl)-6-(4-fluorophenyl)-5,6-dihydro-pyrimido[4′,5′-3,4]pyrrolo[1,2-a]quinoxaline-8,10-(7H,9H)-dione]: under setting [1], the inhibition at 5 µM came out at 22%. In addition, the inhibition at 25 µM under setting [2] was 57%.

As to `Cn1c(=O)c2c(-c3ccccc3)n3c(c2n(C)c1=O)C(c1ccc(O)cc1)Nc1ccccc1-3` (centres unmarked) [PPQ-207, 7,9-Dimethyl-11-phenyl-6-(4-hydroxyphenyl)-5,6-dihydro-pyrimido[4′,5′-3,4]pyrrolo[1,2-a]quinoxaline-8,10-(7H,9H)-dione], the pIC50 was 5.35. The inhibition at 5 µM under setting [3] worked out at 64%. Moreover, the inhibition at 25 µM under setting [4] came out at 86%. Also, the inhibition at 5 µM under setting [1] came out at 64%. Also, the inhibition at 25 µM under setting [2] is 86%.

For the molecule `COc1ccc(C2Nc3ccccc3-n3c(-c4ccc(Cl)cc4)c4c(=O)n(C)c(=O)n(C)c4c32)cc1` (centres unmarked), under setting [1], the inhibition at 5 µM was less than 10%. The inhibition at 25 µM under setting [2] came to 31%.

In the case of `Cc1ccc(-c2c3c(=O)n(C)c(=O)n(C)c3c3n2-c2ccccc2NC3c2cccs2)cc1` (centres unmarked), the inhibition at 5 µM under setting [1] was less than 10%. Under setting [2], the inhibition at 25 µM worked out at 35%.

With `Cc1cc2c(cc1C)-n1c(-c3ccccc3)c3c(=O)n(C)c(=O)n(C)c3c1C(c1cccc(O)c1O)N2` (centres unmarked) [PPQ-236, 2,3,7,9-Tetramethyl-11-phenyl-6-(2,3-dihydroxyphenyl)-5,6-dihydro-pyrimido[4′,5′-3,4]pyrrolo[1,2-a]quinoxaline-8,10-(7H,9H)-dione], under setting [1], the inhibition at 5 µM amounted to 14%. For the same molecule, the inhibition at 25 µM under setting [2] came to 80%.

Take `Cn1c(=O)c2c(-c3ccccc3)n3c(c2n(C)c1=O)C(c1cccc(O)c1)Nc1ccccc1-3` (centres unmarked) [PPQ-240, 7,9-Dimethyl-11-phenyl-6-(3-hydroxyphenyl)-5,6-dihydro-pyrimido[4′,5′-3,4]pyrrolo[1,2-a]quinoxaline-8,10-(7H,9H)-dione]: under setting [1], the inhibition at 5 µM amounted to 30%. Further, under setting [2], the inhibition at 25 µM came out at 74%.

For `COc1cc(O)ccc1C1Nc2ccccc2-n2c(-c3ccccc3)c3c(=O)n(C)c(=O)n(C)c3c21` (centres unmarked) [PPQ-208, 7,9-Dimethyl-11-phenyl-6-(2-methoxy-4-hydroxyphenyl)-5,6-dihydro-pyrimido[4′,5′-3,4]pyrrolo[1,2-a]quinoxaline-8,10-(7H,9H)-dione], the negative-log IC50 (pIC50) is 4.00. Besides, the inhibition at 25 µM under setting [4] was found to be 56%. Moreover, the inhibition at 5 µM under setting [1] turned out to be 13%. In addition, the inhibition at 25 µM under setting [2] came out at 56%.

With `COc1ccc(-c2c3c(=O)n(C)c(=O)n(C)c3c3n2-c2ccccc2NC3c2ccc(C)o2)cc1` (centres unmarked) [PPQ-109, 7,9-Dimethyl-11-(4-methoxyphenyl)-6-(5-methylfuran-2-yl)-5,6-dihydro-pyrimido[4′,5′-3,4]pyrrolo[1,2-a]quinoxaline-8,10-(7H,9H)-dione], the inhibition at 5 µM under setting [1] stood at 12%. The inhibition at 25 µM under setting [2] amounted to 68%.

With `Cc1ccc(-c2c3c(=O)n(C)c(=O)n(C)c3c3n2-c2ccccc2NC3c2ccc(C)o2)cc1` (centres unmarked) [PPQ-110, 7,9-Dimethyl-11-(4-methylphenyl)-6-(5-methylfuran-2-yl)-5,6-dihydro-pyrimido[4′,5′-3,4]pyrrolo[1,2-a]quinoxaline-8,10-(7H,9H)-dione], under setting [1], the inhibition at 5 µM was 21%. Further, under setting [2], the inhibition at 25 µM was determined as 57%.

Take `COc1cc(O)ccc1C1Nc2ccccc2-n2c(-c3ccccc3F)c3c(=O)n(C)c(=O)n(C)c3c21` (centres unmarked): under setting [1], the inhibition at 5 µM is less than 10%. Also, the inhibition at 25 µM under setting [2] turned out to be 41%.

As for `Cc1cc2c(cc1C)-n1c(-c3ccccc3)c3c(=O)n(C)c(=O)n(C)c3c1C(c1ccccc1)N2` (centres unmarked) [PPQ-226, 2,3,7,9-Tetramethyl-11-phenyl-6-phenyl-5,6-dihydro-pyrimido[4′,5′-3,4]pyrrolo[1,2-a]quinoxaline-8,10-(7H,9H)-dione], under setting [1], the inhibition at 5 µM is 61%. The inhibition at 25 µM under setting [2] came out at 92%.

Turning to `CCOc1ccc(C2Nc3ccccc3-n3c(-c4ccccc4C)c4c(=O)n(C)c(=O)n(C)c4c32)cc1` (centres unmarked), the inhibition at 5 µM under setting [1] is less than 10%. Further, the inhibition at 25 µM under setting [2] turned out to be 32%.

For the molecule `COc1ccc(-c2c3c(=O)n(C)c(=O)n(C)c3c3n2-c2ccccc2NC3c2cccc(OC)c2)cc1` (centres unmarked), the inhibition at 5 µM under setting [1] is 13%. The inhibition at 25 µM under setting [2] came out at 47%.

As for `Cc1ccccc1-c1c2c(=O)n(C)c(=O)n(C)c2c2n1-c1ccccc1NC2c1cccc(O)c1O` (centres unmarked), the inhibition at 5 µM under setting [1] is less than 10%. Also, the inhibition at 25 µM under setting [2] was 30%.

Turning to `Cc1cccc(-c2c3c(=O)n(C)c(=O)n(C)c3c3n2-c2ccccc2NC3c2ccccc2)c1` (centres unmarked) [PPQ-250, 7,9-Dimethyl-11-(3-methylphenyl)-6-phenyl-5,6-dihydro-pyrimido[4′,5′-3,4]pyrrolo[1,2-a]quinoxaline-8,10-(7H,9H)-dione], the inhibition at 5 µM under setting [1] stood at 49%. The inhibition at 25 µM under setting [2] amounted to 64%.

Regarding `Cc1ccccc1-c1c2c(=O)n(C)c(=O)n(C)c2c2n1-c1ccccc1NC2c1cccc(F)c1F` (centres unmarked) [PPQ-221, 7,9-Dimethyl-11-(2-methylphenyl)-6-(2,3-difluorophenyl)-5,6-dihydro-pyrimido[4′,5′-3,4]pyrrolo[1,2-a]quinoxaline-8,10-(7H,9H)-dione], the inhibition at 5 µM under setting [1] amounted to 50%. Under setting [2], the inhibition at 25 µM was more than 95%.

Take `Cc1cc2c(cc1C)-n1c(-c3ccccc3)c3c(=O)n(C)c(=O)n(C)c3c1C(c1ccc(O)c(O)c1)N2` (centres unmarked) [PPQ-224, 2,3,7,9-Tetramethyl-11-phenyl-6-(3,4-dihydroxyphenyl)-5,6-dihydro-pyrimido[4′,5′-3,4]pyrrolo[1,2-a]quinoxaline-8,10-(7H,9H)-dione]: the inhibition at 5 µM under setting [1] amounted to 24%. For the same molecule, under setting [2], the inhibition at 25 µM was found to be 82%.
